According to patent US10165777B2, “Substituted pyrazolylpyrazole derivative and use of same as herbicide” (KYOYU AGRI CO., LTD., priority 2015, dated 2019):

Columns and labels:
Format in all cases: in vivo
[1] = test system: Amaranthus retroflexus; experiment: Weed foliar treatment test (Test 3, 1.0 to 2.0 leaf stage); details: foliar spray at 1.0 to 2.0 leaf stage of Digitaria ciliaris, 3 weeks
Protocol: (§1) Soil was filled into a 1/6000 are pot followed by seeding with Digitaria ciliaris, Chenopodium album and Amaranthus retroflexus, covering with soil, and cultivating in a glass greenhouse at an average atmospheric temperature of 25° C. Wettable powders of Target Compound (I) shown in Table 1 prepared in compliance with the preparation examples were diluted with water to the prescribed amount of chemical and uniformly sprayed onto the weeds using 150 liters of sprayed water per 10 are when Digitaria ciliaris had grown to the 1.0 to 2.0 leaf stage. After treating for 3 weeks in a glass greenhouse at an average atmospheric temperature of 25° C., the herbicidal efficacy thereof was investigated. Evaluation of herbicidal efficacy was carried out in the same manner as the above-mentioned Test Example 1.

[2] = test system: Digitaria ciliaris; experiment: as above; details: foliar spray at 1.0 to 2.0 leaf stage of Digitaria ciliaris, 3 weeks
Protocol: as §1

[3] = test system: Chenopodium album; experiment: as above; details: foliar spray at 1.0 to 2.0 leaf stage of Digitaria ciliaris, 3 weeks
Protocol: as §1

[4] = test system: Scirpus juncoides; experiment: Paddy herbicidal activity test; details: irrigated pot, 30 days
Protocol: (§2) 1. Paddy Herbicidal Activity Test Rice paddy soil was filled into a 1/10000 are pot followed by the addition of suitable amounts of water and chemical fertilizer, kneading, seeding with Echinochloa crus-galli, Monochoria vaginalis and Scirpus juncoides and maintaining in an irrigated state at a water depth of 3 cm. Wettable powders of Target Compound (I) shown in Table 1 prepared in compliance with the preparation examples were diluted with a suitable amount of water, rice plants in the 2.0 leaf stage were transplanted during 3.5 leaf stage of Echinochloa crus-galli, and treated by dropping in chemical in the prescribed amount per 10 are using a pipette. After treating for 30 days in a glass greenhouse at an average atmospheric temperature of 30° C., the herbicidal efficacy thereof was investigated. Evaluation of herbicidal efficacy was carried out by comparing growth inhibition rate (%) with an untreated group, while evaluation of phytotoxicity was carried out by comparing growth inhibition rate (%) with the state of a complete eradication group, and were evaluated at 11 levels indicated below.

[5] = test system: Echinochloa crus-galli; experiment: Paddy herbicidal activity test; details: irrigated pot, treated at 3.5 leaf stage of Echinochloa crus-galli, 30 days
Protocol: as §2

[6] = test system: Monochoria vaginalis; experiment: Paddy herbicidal activity test; details: irrigated pot, 30 days
Protocol: as §2

[7] = test system: Amaranthus retroflexus; experiment: Farming soil treatment test; details: soil surface spray prior to weed growth, 30 days
Protocol: (§3) Field soil was filled into a 1/6000 are pot followed by seeding with Digitaria ciliaris, Chenopodium album and Amaranthus retroflexus and covering with soil. Wettable powders of compounds of formula (I) shown in Table 1 prepared in compliance with the preparation examples were diluted with water to the prescribed amount of chemical and uniformly sprayed onto each soil surface layer using 100 liters of sprayed water per 10 are prior to weed growth following seeding. After treating for 30 days in a glass greenhouse at an average atmospheric temperature of 30° C., the herbicidal efficacy thereof was investigated. Evaluation of herbicidal efficacy was carried out in the same manner as the above-mentioned Test Example 1.

[8] = test system: Digitaria ciliaris; experiment: Farming soil treatment test; details: soil surface spray prior to weed growth, 30 days
Protocol: as §3

[9] = test system: Chenopodium album; experiment: Farming soil treatment test; details: soil surface spray prior to weed growth, 30 days
Protocol: as §3

[10] = test system: Digitaria ciliaris; experiment: Weed foliar treatment test (Test 4, 4.0 to 5.0 leaf stage); details: 10 g a.i./10 a; foliar spray at 4.0 to 5.0 leaf stage of Digitaria ciliaris (plant height 10 cm to 15 cm); 20 days
Protocol: (§4) Field soil was filled into a 1/4500 are pot followed by seeding with Digitaria ciliaris and Galinsoga parviflora, covering with soil and cultivating in a glass greenhouse at an average atmospheric temperature of 25° C.
(§5) Wettable powders of Target Compound (I) shown in Table 1 prepared in compliance with the preparation examples were diluted with water to the prescribed amount of chemical and uniformly sprayed onto the weeds using 100 liters of sprayed water per 10 are when Digitaria ciliaris had grown to the 4.0 to 5.0 leaf stage (plant height: 10 cm to 15 cm).
(§6) After treating for 20 days in a glass greenhouse at an average atmospheric temperature of 25° C., the herbicidal efficacy thereof was investigated.
(§7) Evaluation of herbicidal efficacy was carried out in the same manner as the above-mentioned Test Example 1.

[11] = test system: Galinsoga parviflora; experiment: as above; details: 10 g a.i./10 a; foliar spray at 4.0 to 5.0 leaf stage of Digitaria ciliaris; 20 days
Protocol: as §4, §5, §6, §7

[12] = test system: Oryza sativa; experiment: Paddy herbicidal activity test, phytotoxicity to transplanted rice; details: rice transplanted in 2.0 leaf stage, 30 days
Protocol: as §2

COC=Nc1c(C#N)cnn1-c1nn2c(c1Cl)CCCC2 [Compound 33]
herbicidal efficacy, Amaranthus retroflexus ([1]; 5 g a.i./10 a): 9 (90% to less than 100%) | herbicidal efficacy, Amaranthus retroflexus ([1]; 10 g a.i./10 a): 9 (90% to less than 100%) | herbicidal efficacy, Digitaria ciliaris ([2]; 5 g a.i./10 a): 9 (90% to less than 100%) | herbicidal efficacy, Digitaria ciliaris ([2]; 10 g a.i./10 a): 9 (90% to less than 100%) | herbicidal efficacy, Chenopodium album ([3]; 5 g a.i./10 a): 10 (100%) | herbicidal efficacy, Chenopodium album ([3]; 10 g a.i./10 a): 10 (100%) | herbicidal efficacy, Scirpus juncoides ([4]; 1 g a.i./10 a): 9 (90% to less than 100%) | herbicidal efficacy, Scirpus juncoides ([4]; 5 g a.i./10 a): 9 (90% to less than 100%) | herbicidal efficacy, Echinochloa crus-galli ([5]; 1 g a.i./10 a): 9 (90% to less than 100%) | herbicidal efficacy, Echinochloa crus-galli ([5]; 5 g a.i./10 a): 9 (90% to less than 100%) | herbicidal efficacy, Monochoria vaginalis ([6]; 1 g a.i./10 a): 9 (90% to less than 100%) | herbicidal efficacy, Monochoria vaginalis ([6]; 5 g a.i./10 a): 10 (100%) | herbicidal efficacy, Amaranthus retroflexus ([7]; 5 g a.i./10 a): 9 (90% to less than 100%) | herbicidal efficacy, Amaranthus retroflexus ([7]; 10 g a.i./10 a): 9 (90% to less than 100%) | herbicidal efficacy, Digitaria ciliaris ([8]; 5 g a.i./10 a): 9 (90% to less than 100%) | herbicidal efficacy, Digitaria ciliaris ([8]; 10 g a.i./10 a): 9 (90% to less than 100%) | herbicidal efficacy, Chenopodium album ([9]; 5 g a.i./10 a): 9 (90% to less than 100%) | herbicidal efficacy, Chenopodium album ([9]; 10 g a.i./10 a): 9 (90% to less than 100%) | herbicidal efficacy, Digitaria ciliaris [10]: 9 (90% to less than 100%) | herbicidal efficacy, Galinsoga parviflora [11]: 10 (100%) | phytotoxicity, Oryza sativa ([12]; 1 g a.i./10 a): 0 (0% to less than 10% (growth inhibition rate)) | phytotoxicity, Oryza sativa ([12]; 5 g a.i./10 a): 1 (10% to less than 20%)
